Literature values as cited in PMC10544575, “Inhibitory mechanism of vortioxetine on CYP450 enzymes in human and rat liver microsomes” (Frontiers in Pharmacology, 2023).

What was measured:
Conditions in all cases: in vitro; ref Wójcikowski et al., 2020; cited from earlier work
CYP1A2 = tested on: CYP1A2; parameters: method as in Wójcikowski et al., 2020
CYP2D6 = CYP2D6 (Homo sapiens, UniProt P10635); parameters: 0.20 mg/mL HLMs or 0.20 mg/mL RLMs; from tissue; host or cells: human liver microsomes; method as in Wójcikowski et al., 2020
CYP2D6, sequence (P10635 whole entry): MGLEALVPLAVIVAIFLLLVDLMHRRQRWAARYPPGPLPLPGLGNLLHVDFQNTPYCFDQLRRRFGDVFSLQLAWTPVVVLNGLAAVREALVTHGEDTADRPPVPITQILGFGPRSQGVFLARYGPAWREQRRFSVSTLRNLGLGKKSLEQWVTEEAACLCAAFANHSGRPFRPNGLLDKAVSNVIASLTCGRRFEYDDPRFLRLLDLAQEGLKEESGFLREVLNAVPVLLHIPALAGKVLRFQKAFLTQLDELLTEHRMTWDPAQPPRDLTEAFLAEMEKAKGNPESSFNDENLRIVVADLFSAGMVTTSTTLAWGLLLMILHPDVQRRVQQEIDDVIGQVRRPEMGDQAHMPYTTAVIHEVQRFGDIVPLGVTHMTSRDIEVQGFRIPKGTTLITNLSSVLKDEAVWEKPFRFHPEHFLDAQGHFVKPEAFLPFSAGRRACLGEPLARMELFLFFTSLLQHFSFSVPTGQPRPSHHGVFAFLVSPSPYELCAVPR

CYP3A4 = CYP3A4 (Homo sapiens, UniProt P08684); parameters: 0.20 mg/mL HLMs or 0.20 mg/mL RLMs; from tissue; host or cells: human liver microsomes; method as in Wójcikowski et al., 2020
CYP3A4, sequence (P08684 whole entry): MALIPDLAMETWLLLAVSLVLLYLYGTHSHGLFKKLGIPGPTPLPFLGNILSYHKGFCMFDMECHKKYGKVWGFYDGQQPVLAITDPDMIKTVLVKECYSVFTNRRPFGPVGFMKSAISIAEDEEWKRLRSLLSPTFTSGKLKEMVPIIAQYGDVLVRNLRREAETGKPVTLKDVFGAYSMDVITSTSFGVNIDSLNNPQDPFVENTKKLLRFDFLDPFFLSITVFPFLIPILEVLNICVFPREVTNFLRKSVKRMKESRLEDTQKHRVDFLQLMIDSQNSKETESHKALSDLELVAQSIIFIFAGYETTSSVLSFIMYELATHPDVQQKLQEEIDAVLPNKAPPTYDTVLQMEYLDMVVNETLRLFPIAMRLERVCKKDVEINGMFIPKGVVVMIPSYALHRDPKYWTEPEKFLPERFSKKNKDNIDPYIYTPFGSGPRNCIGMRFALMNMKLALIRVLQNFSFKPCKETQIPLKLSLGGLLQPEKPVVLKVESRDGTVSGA

CN1CC2c3ccccc3Oc3ccc(Cl)cc3C2C1 (stereo not drawn) [asenapine]
significantly inhibited: inhibition of CYP1A2 (CYP1A2) | inhibition of CYP2D6 (CYP2D6) | inhibition of CYP3A4 (CYP3A4)
